We go through ten compounds from patent US20100216875A1, “METHODS OF TREATING ALZHEIMER'S DISEASE” (priority 2006, published 2010).

The target of test [1] is T1, cathepsin B (Homo sapiens, UniProt P07858). The test is described as follows: recombinant cathepsin B β-secretase assay (Z-VKM-MCA). Type of test: biochemical. More on the design: purchased. Conditions: recombinant human cathepsin B (3.5 ng), Z-V-K-M-MCA substrate (100 μM); read-out: IC50 inhibitory concentration. The protocol: Peptide structures that inhibit cathepsin B β-secretase activity were used to develop small molecule AD drugs. A library of dipeptide aldehydes were screened for an inhibitory effect on the cathepsin B β-secretase activity using recombinant human cathepsin B (3.5 ng) cleavage of the Z-V-K-M-MCA substrate (100 μM).
The recombinant cathepsin B β-secretase assay occurs in a solution (100 μl total volume) consisting of H2O (20 μl), Na-Acetate (50 mM, pH 5.0), NaCl (100 mM), Z-VKM-MCA (100 μM), GSH (10 mM), EDTA (1 mM), and recombinant human cathepsin B (3.5 ng) and 2DMSO (2%). A dipeptide aldehyde was added to such solutions in varying amounts to determine the IC50. The reagents were generally commercially available or, in the case of the dipeptide aldehydes, custom synthesized. The assay was incubated at 37° C. for 45 minutes and the fluorescence was read using a spectrophotometer (365/450 nm excitation/emission). Assays were run in duplicate. Compounds that inhibited cathepsin B by 80-100% (at 10 μM) underwent dose-response testing at […] to 10 μM to determine potency, measured as IC50 values (determined by non-linear regression a analysis using Graphpad Prism). Compounds with IC50 values in the nanomolar range, up to 100 nM, were selected for further study.

In test [2] the test system is endogenous β-secretase activity in regulated secretory vesicles. The test is described as follows: endogenous β-secretase activity in isolated regulated secretory vesicles, monitored with Z-Val-Lys-Met-MCA. Type of test: biochemical, bovine. The method, then: A high throughput screening (HTS) assay was developed to measure protease activity that cleaves the wild-type β-secretase cleavage site. The substrate Z-Val-Lys-Met-MCA mimics the wild-type β-secretase cleavage site upon cleavage between Met-MCA, which generates fluorescent MCA. The free MCA fluorescence provides sensitive and quantitative measurement of protease activity. This assay provides a rapid (30 minutes) and sensitive assay of activity for cleaving the wild-type β-secretase cleavage site of APP, expressed in majority of the AD population Specifically, the Z-Val-Lys-Met-MCA cleaving assay can be used to detect endogenous β-secretase activity in regulated secretory vesicles.
Isolation of regulated secretory vesicles, also known as chromaffin vesicles, from adrenal medullary tissue (bovine) was conducted by sucrose density gradient purification, as described previously (54-56, 58). Briefly, fresh bovine adrenal medulla (from 40 glands) was gently homogenized by a polytron (Brinkmann) in 200-250 ml ice-cold 0.32 M sucrose. The homogenate was centrifuged at 1500 rpm in a GSA rotor (Sorval centrifuge) for 20 minutes at 4° C. The supernatant was collected and centrifuged at 8000 rpm in a GSA rotor for 20 minutes at 4° C. to obtain a pellet of chromaffin vesicles. The pellet was washed 3 times in 0.32 M sucrose. […]

In test [3] the test system is Aβ40 production from endogenous APP in regulated secretory vesicles isolated from chromaffin cells. Nature of the test: Aβ production from endogenous APP in isolated regulated secretory vesicles. Format: biochemical, bovine. Conditions: inhibitor 10 μM. The method, then:
Regulated secretory vesicles isolated from chromaffin cells naturally produce Aβ from endogenous APP when incubated at 37° C. in vitro for several hours. These vesicles can be used as an in vitro screen for compounds that inhibit Aβ production. […] The effects of cathepsin B inhibitors, CA074 (10 μM, ♦) and CA074Me (10 μM, □), on the production of Aβ40 from endogenous APP in regulated secretory vesicles isolated from chromaffin cells was evaluated in time course studies. […] Each inhibitor was tested in triplicate; values represent x±sem (*statistically significant with p<0.05).
Cathepsin B compounds that were effective inhibitors of endogenous II-secretase activity were tested for inhibition of Aβ peptide production in regulated secretory vesicles. The effect of reversible cathepsin B compounds on production of Aβ40 and Aβ42 in isolated chromaffin vesicles was tested by incubating candidate inhibitors (at 10 μM) with lysed chromaffin vesicles under identical conditions as for the β-secretase assay for 8 hours. […] After incubation, Aβ40 and Aβ42 was measured by ELISA assays, as described for measurement of Aβ peptides in brain extracts. Each candidate inhibitor was assayed in triplicate.

The subject of the next test is brain Aβ. The settings on record: wild-type mice, icv 200 mg/kg/day; cited from earlier work.
For a further test, the target named is aspartyl protease, BACE1 (Homo sapiens, UniProt P56817). The test is described as follows: effect on BACE1. Type of test: biochemical.
Test [4] deals with T1, cathepsin B. Conditions: reference (4); read-out: IC50 for cathepsin B inhibition; cited from earlier work.
Test [5] relates to brain and synaptosomal Aβ. The test is described as follows: guinea pig brain and synaptosome Aβ by ELISA after icv infusion. Format: in vivo. Conditions: icv 0.15 mg/kg/day, 30 days. An excerpt:
Guinea pig (gp) is a natural, non-transgenic model of human APP processing gpAPP is 98% homologous to human APP, contains the human wild-type β-secretase site, and gpAβ is identical to human Aβ. Brain synaptosome preparations are enriched with neuronal synapses which are the sites at which regulated secretion occurs and are an in vivo measure of regulated secretory secretion CTFβ is an APP fragment that results from p-secretase cleavage of APP and reflects in vivo β-secretase activity. […] E64d was icy administered into gp brains (0.15 mg/kg/day) for 7 or 30 days. […] In FIG. 5b, total synaptosomal Aβ is shown.
CA074Me (0.15 mg/kg/day) was icy infused into gp brains with mini pumps. […] An equal reduction of Aβ40 and Aβ42 is consistent with the inhibitor affecting p-secretase activity
At the end of the treatment, the brains were isolated and extracted with guanidine hydrochloride and Aβ40 and Aβ42 levels were determined using ELISA.
Cathepsin B inhibitors were administered directly into the brain by icy infusion with minipumps in time course studies at different doses. Guinea pigs were infused with compounds using Alzet pumps (2.5 μl/hr, with compounds at 1 mg/ml in saline) for 7 and 30 days, and other times. This initial dose of compound was selected because E64d and CA074Me are effective at this dose. Each treatment group consisted of eight to ten guinea pigs, including the vehicle control group.
At the end of each experiment, animals were sacrificed and half the brain was taken for ELISA measurement of Aβ40 and Aβ42 levels. The other half was isolated for synaptosome preparations for ELISA measurement of Aβ40 and Aβ42 content in nerve terminals. Synaptosomes were prepared by homogenization in isotonic sucrose (320 mM), pH 7.4, 1 mM EDTA, 0.25 mM dithiothreitol, and 30 U/MI RNAse inhibitor. The homogenate was centrifuged at 1000×g for 10 minutes. The supernatant was loaded on a Sucrose-Percoll discontinuous gradient and centrifuged at 32,000×g for 5 minutes (80) Enriched synaptosomes were washed in PBS, and centrifuged at 12,000×g for 4 minutes. The supernatant was removed, and the synaptosome containing pellet was resuspended in 50% OptiPrep (Accurate Chemica. Westbury, N.Y.), loaded on an OptiPrep discontinuous flotation gradient (9, 12.5, 25, and 35%) and centrifuged at 10,000×g for 20 minutes. The synaptosomes were obtained at the […]
For quantitative analysis of Aβ peptides, an enzyme-linked immunosorbent assay (ELISA) was used to measure the levels of total Aβ, Aβtotal, Aβ40 and Aβ42 in the brains and synaptosomes of guinea pigs (Biosource International, Camarillo, Calif.) Aβtotal, Aβ40, Aβ42 was extracted from guinea pig brains or from synaptosomes by guanidine hydrochloride and quantified as described by the manufacturer. This assay extracted the total Aβ peptide from the brain (both soluble and aggregated). Tissue samples were homogenized in 5M guanidine buffer (5M guanidine HCl in 50 mM Tris-Cl, pH 8.3; Sigma-Aldrich, St. Louis, Mo.) at 1:10 w/v dilution. Homogenates were agitated at room temperature for 3-4 hours, then stored at −20° C. The day before running the ELISA, the tissue samples were diluted further 1:10 to provide a final guanidine concentration of 0.5M. These diluted homogenates were spun down at 14,000 rpm for 20 minutes at 4° C. and supernatants used for Aβ determination by ELISA (84-86). Brain and synaptosome extracts were assayed as diluted in 0.5M guanidine. In addition, Aβ40 and Aβ42 were assayed using ELISA using 6E10 as the capture antibody and Rb209 and Rb321 as reporter antibodies, respectively, for Aβ40 and Aβ42 (96).

Test [6] has as its target cathepsin B purified from secretory vesicles (Bos taurus, UniProt P07688). The test is described as follows: Z-Val-Lys-Met-MCA cleaving activity of purified cathepsin B. Conditions: inhibitor 10 μM.

The structures appear in SMILES notation. Read-outs that look alike come from different tables or passages of the source. Peptide text beside a SMILES is read from it. * marks the point of attachment. Cbz = O=C(OCc1ccccc1)*

Chain of aspartyl protease, BACE1 (P56817 46-501): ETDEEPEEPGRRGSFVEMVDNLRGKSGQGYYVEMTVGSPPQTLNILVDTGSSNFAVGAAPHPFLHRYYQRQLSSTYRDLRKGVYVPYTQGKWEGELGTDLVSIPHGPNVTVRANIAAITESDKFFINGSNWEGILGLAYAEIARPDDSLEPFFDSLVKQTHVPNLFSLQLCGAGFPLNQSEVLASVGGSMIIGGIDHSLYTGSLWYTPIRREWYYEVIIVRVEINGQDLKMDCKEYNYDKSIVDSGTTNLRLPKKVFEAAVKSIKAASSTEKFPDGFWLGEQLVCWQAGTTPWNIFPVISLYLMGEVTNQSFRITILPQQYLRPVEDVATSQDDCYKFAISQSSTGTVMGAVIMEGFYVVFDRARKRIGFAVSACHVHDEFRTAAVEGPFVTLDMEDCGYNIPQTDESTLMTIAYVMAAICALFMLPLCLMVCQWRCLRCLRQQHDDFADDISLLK

For `CC(C)C(C=O)NC(=O)C(Cc1ccc(O)cc1)NC(=O)OCc1ccccc1` (stereo not drawn) [Z-YV-ald] (Cbz-Tyr-Val-aldehyde; configuration not given here), at cathepsin B [1], the IC50 was 65 nM.

Turning to `CC(=O)NCCCCC(C=O)NC(=O)C(CSC(=O)OCc1ccccc1)NC(=O)OCc1ccccc1` (stereo not shown) [Z-C(Z)K(Ac)-ald] (Cbz-Cys(Cbz)-Lys(Ac)-aldehyde; configuration not given here), the IC50 on cathepsin B [1] turned out to be 91 nM.

For `CCCNC(=O)[C@H]1O[C@@H]1C(=O)N[C@H](C(=O)N1CCC[C@H]1C(=O)O)[C@@H](C)CC` [CA074], in test [2] (inhibitor 1 μM), the “inhibition of endogenous β-secretase activity in regulated secretory vesicles” value is “completed inhibited”. For the same compound, in test [3], the “effect on Aβ production in isolated regulated secretory vesicles” value is on record as “block Aβ production”.

Take `O=CC(CO)NC(=O)C(CSC(=O)OCc1ccccc1)NC(=O)OCc1ccccc1` (stereo not shown) [Z-C(Z)S-ald] (Cbz-Cys(Cbz)-Ser-aldehyde; configuration not given here): the IC50 on cathepsin B [1] was 67 nM.

In the case of `O=CC(CO)NC(=O)C(Cc1ccc(O)cc1)NC(=O)OCc1ccccc1` (stereo not drawn) [Z-YS-ald] (Cbz-Tyr-Ser-aldehyde; configuration not given here), the IC50 at cathepsin B [1] was determined as 37 nM.

With `CC(=O)NCCCCC(C=O)NC(=O)C(NC(=O)OCc1ccccc1)C(C)C` (stereo not shown) [Z-VK(Ac)-ald], the IC50 at cathepsin B [1] came out at 31 nM.

In the case of `O=CC(CO)NC(=O)C(CCC(=O)NC(c1ccccc1)(c1ccccc1)c1ccccc1)NC(=O)OCc1ccccc1` (stereo not shown) [Z-Q(Trt)S-ald], the IC50 at cathepsin B [1] amounted to 58 nM.

With `CC(C)C[C@H](NC(=O)[C@@H](NC(=O)[C@@H](N)CNC(=O)c1nn[nH]n1)C(C)C)C(=O)N[C@@H](Cc1ccccc1)[C@@H](O)C(=O)Nc1cc(C(=O)O)cc(C(=O)O)c1` [KMI-429], the “maximum reduction in brain Aβ” value in the test with brain Aβ is listed as 30-40%.

`CC(=O)N[C@@H](CC(C)C)C(=O)N[C@H](C(=O)N[C@H](C=O)CCCCN)C(C)C` [Ac-LVK-CHO, acetyl-L-leucyl-L-valyl-L-lysinal] (Ac-Leu-Val-Lys-aldehyde): on aspartyl protease, BACE1, the “effect on BACE1” value was “do not affect”. Further, the IC50 on cathepsin B [4] was 4 nM. Besides, in test [5], the “reduction of Aβ40 in brain extracts” value is recorded as “about 70%” and the “reduction of Aβ42 in brain extracts” value is approximately 60%.

As to `CC(C)CCNC(=O)[C@H](CC(C)C)NC(=O)[C@H]1O[C@@H]1C(=O)O` [E64c], the “inhibition of Z-Val-Lys-Met-MCA cleaving activity of cathepsin B” value in test [6] is “completely inhibited”. In test [2] (inhibitor 10 μM), the “inhibition of endogenous β-secretase activity in regulated secretory vesicles” value is on record as “completed inhibited”. Moreover, in test [3], the “effect on Aβ production in isolated regulated secretory vesicles” value was “inhibited”.
